In US4617187A, “Therapeutic method for treating radiation ulcers” (Eisai Co., Ltd., priority 1983, dated 1986):
Entries after “also recorded” stand apart in the source; their conditions may differ.

Assays:
[1] = system: skin; test: Primary skin irritation test; type: in vivo; conditions: 1% in Squalane
[2] = system: skin; test: Cumulative skin irritation test; type: in vivo; conditions: 1% in Squalane
[3] = Blepharoirritation test; type: in vivo; conditions: 1% in Squalane
[4] = system: skin; test: Phototoxicity test; type: in vivo
[5] = system: skin; test: Challenge test (Adjuvante & Patch Method); type: in vivo; conditions: Induction: 5% in Acetone
Description: |Challenge Induction: 5% Acetone

[6] = system: skin; test: Photochallenge (optical challenge) test (Adjuvante Strip method); type: in vivo; conditions: Induction: 10% in Acetone
Description: |Photo- Induction: 10% Acetone

[7] = system: skin; test: Patch test; type: in vivo; conditions: 1% in Squalane
[8] = system: Wistar rats; test: Subacute toxicity, peroral, rats; type: in vivo; conditions: peroral 40, 200 and 1,000 mg/kg/day, 5 weeks, male and female Wistar rats
Method: (§1) Ubidecarenone was perorally administered at 40, 200 and 1,000 mg/kg/day to male and female Wistar rats continuously over a period of 5 weeks and also at 60 and 600 mg/kg/day to male and female rabbits continuously over a period of 23 days.

[9] = system: rabbits; test: Subacute toxicity, peroral, rabbits; type: in vivo; conditions: peroral 60 and 600 mg/kg/day, 23 days, male and female rabbits
Method: as §1

[10] = system: Wistar rats; test: Chronic toxicity, peroral, rats; type: in vivo; conditions: forced peroral 6, 60 and 600 mg/kg/day, 26 weeks, female and male Wistar rats
Method: Ubidecarenone was forcedly and perorally administered at 6, 60 and 600 mg/kg/day to female and male Wistar rats continuously over a straight period of 26 weeks.

[11] = system: radiation ulcer; test: Case 2: treatment of radiation ulcer of lower abdomen after cervical cancer radiation; type: in vivo, patient
Description: This patient was subjected to postoperative radiation for the treatment of cervical cancer 18 years before. […] In the Case, the hyperbaric oxygen therapy, zinc sulfate, injectable glutathione, injectable intaserine and Bendazac ointment were applied intermittently in combination. […] Thus, the coating of a therapeutic preparation to be described in Example 1, which pertains to this invention, was initiated.

[12] = system: skin; test: Stability and irritation when applied to the skin (general statement)
[13] = system: radiation ulcers; test: Treatment of radiation ulcers (general statement); type: in vivo; conditions: administration to an ulcerated site
[14] = cited from earlier work
[15] = system: cardiac muscle; conditions: known action, cited from earlier work
[16] = system: radiation ulcers; test: Case 1: treatment of ulcer in irradiated chest wall after breast cancer; type: in vivo, patient; conditions: Case 1, after radiotherapy 40 Gy with oily bleomycin and carmofur ointment; peroral zinc sulfate and injection of intaserine to facilitate wound healing
Description: Person, The patient underwent a surgery on […] left breast cancer. It recurred in their left chest wall seven years later, resulting in the formation of a carcinomatous ulcer. This carcinomatous ulcer became resistant to the cryosurgery and carcinostatic chemotherapy, leading to need for the radiotherapy. The patient was exposed to a total radiation dose of 40 Gy while using oily bleomycin and carmofur ointment in combination with a view toward enhancing the effects of the radiotherapy. […] However, they fell down accidently at this stage and the wound was traumatized and ulcerated again. Thus, cythocrome c was injected and at the same time, Bendazac ointment was applied. […] At this stage, the coating of a therapeutic preparation to be described in Example 1, which pertains to the present invention, was started.

[17] = Case 2, prior treatment applied intermittently in combination, with hyperbaric oxygen therapy

COC1=C(OC)C(=O)C(C/C=C(\C)CC/C=C(\C)CC/C=C(\C)CC/C=C(\C)CC/C=C(\C)CC/C=C(\C)CC/C=C(\C)CC/C=C(\C)CC/C=C(\C)CCC=C(C)C)=C(C)C1=O [Ubidecarenone]
Primary irritation, Conclusion [1]: Little skin irri-
Primary irritation, Results [1]: 0.1
Cumulative skin irritation, Conclusion [2]: Little skin irri-
Cumulative skin irritation, Results [2]: 0.3
Blepharoirritation, Conclusion [3]: Little blepharo-
Phototoxicity, Conclusion ([4]; 1% in Squalane): Little phototoxicity
Phototoxicity, Conclusion ([4]; 10% in Squalane): Little phototoxicity
Challenge, Conclusion ([5]; challenge 1% in Acetone): Little challenge
Challenge, Results ([5]; challenge 1% in Acetone): 0/10
Challenge, Conclusion ([5]; challenge 5% in Acetone): Little challenge
Challenge, Results ([5]; challenge 5% in Acetone): 0/10
Photochallenge, Conclusion ([6]; challenge 10% in Acetone): Little photo-
Photochallenge, Results ([6]; challenge 10% in Acetone): 0/5
Photochallenge, Conclusion ([6]; challenge conc. 0.5 in Acetone): Little photo-
Photochallenge, Results ([6]; challenge conc. 0.5 in Acetone): 0/5
Photochallenge, Conclusion ([6]; challenge conc. 1 in Acetone): Little photo-
Photochallenge, Results ([6]; challenge conc. 1 in Acetone): 0/5
Photochallenge, Conclusion ([6]; challenge conc. 2 in Acetone): Little photo-
Photochallenge, Results ([6]; challenge conc. 2 in Acetone): 0/5
Photochallenge, Conclusion ([6]; challenge conc. 5 in Acetone): Little photo-
Photochallenge, Results ([6]; challenge conc. 5 in Acetone): 0/5
Patch test, Conclusion [7]: Little skin irri-
Patch test, Results [7]: 0/54
general appearance, blood, urine test and morphological observation (visual and histological) vs control [8]: No differences were observed
general appearance, blood, urine test and morphological observation (visual and histological) vs control [9]: No differences were observed
general appearance, blood, urine test and morphological observation (visual and histological) vs control [10]: no differences were observed
change of the ulcer ([11]; Case 2, oral ubidecarenone therapy, 2 months): no change was observed as to the ulcer
irritation to the skin [12]: little irritation to the skin
stability when applied to the skin [12]: good stability
curing of radiation ulcers [13]: excellent curing results; also recorded: radiation ulcers can be successfully cured
solubility in oil ([14]; oil): oil-soluble
solubility in water or methanol ([14]; water or methanol): hardly soluble
ATP-yielding function ([15]; cardiac muscle in an ischemic state): maintain the ATP-yielding function at a high level even when the cardiac muscle is in an ischemic state
disorders of ischemic cardiac muscle tissue [15]: can reduce disorders, which the tissue of ischemic cardiac muscle would develop
drop of heart contraction function [15]: improve the drop of heart contraction function
percentage oxygen utilization of cardiac muscle [15]: can improve the percentage oxygen utilization of cardiac muscle

N[C@@H](CCC(=O)N[C@@H](CS)C(=O)NCC(=O)O)C(=O)O [glutathione]
change of the ulcer [11, 17]: the ulcer was not improved

O=S(=O)([O-])[O-].[Zn+2] [zinc sulfate]
ulcer outcome [16]: the ulcer became cancer-free and an eschar was produced
change of the ulcer [11, 17]: the ulcer was not improved
